Here are results for 2 molecules from PMC6312923 (Life Science Alliance, 2018).

Assay type in all cases: cell-based, human
The subject of assay [1] is Cdt1 and p21 poly-ubiquitination. As to the kind of experiment: Poly-ubiquitination of Cdt1 and p21 in U2OS cells. Conditions: U2OS stable cells, MG132 3 h. As to the method: (§1) To consider this possibility, asynchronously growing control HEK293 cells and cells expressing Cdt2^WT or Cdt2^PIP-3A were treated with proteasome inhibitor MG132 and the levels of poly-ubiquitinated Cdt1 were examined. […] Cdt2^PIP-3A-expressing cells however had reduced level of both poly-ubiquitinated Cdt1 and p21 on chromatin.
Figure S7. Cdt2 PIP box is important for CRL4^Cdt2 activity in U2OS cells. (A) U2OS stable cells expressing Cdt2^WT or Cdt2^PIP-3A. U2OS cells were transfected with expression vectors for Cdt2^WT-FLAG or Cdt2^PIP-3A-FLAG, and isolated stable clones were verified by immunofluorescent analysis and Western blot analysis. Frequency of expressing cells for each construct was shown (%). (B) Poly-ubiquitination assay with U2OS stable cells. U2OS cells and Cdt2^WT-3FLAG or Cdt2^PIP-3A-3FLAG expressing stable U2OS cells were treated with MG132 for 3 h or not (−), and whole-cell extracts were prepared for Western blotting. (C) Cells were transfected with siCdt2 or control siLuc for 72 h, irradiated with UV (+, 5 J/m^2) or not (−), and collected 1h later for Western blotting. Relative levels of Cdt1 were shown, UV (−) level set as 1.0 (average of two independent experiments).

For assay [2], the system named is UV-C–damaged sites in MCF7 cells. The assay can be described thus: FRAP of GFP-tagged proteins at sites of local UV-C damage in MCF7 cells.
Experimental: (C) MCF7 cells were transfected with the indicated GFP-tagged plasmids and 24 h later they were locally UV-C irradiated (50 J/m^2). 20 min following irradiation, FRAP experiments were conducted at the site of damage and in untreated cells (Fig S1). FRAP data were analysed with easyFRAP. Mean normalized fluorescence intensities at the site of damage as a function of time following photobleaching are shown. (D) MCF7 cells were synchronized in the S phase by treatment with 2-mM thymidine for 24 h. Upon release, cells were transfected with siCdt1 or control siLuc in parallel with a plasmid expressing GFP-tagged Cdt2. Cells were then synchronised in the M phase by treatment with 50 ng/ml nocodazole for 12 h, released into G1 for 5 h, and locally UV-C irradiated (50 J/m^2). 20 min after irradiation, the cells were analysed by FRAP. Mean normalized fluorescence recovery curves at the sites of damage are shown.
To perform micropore UV irradiation, cells were cultured on cover slips, washed twice with PBS, and subsequently covered with an isopore polycarbonate membrane filter (Millipore) with a pore size of either 3 or 5 μm in diameter, and irradiated. UV irradiation was achieved using a UV lamp (SUV-16, As One, Japan) with a dose rate of 0.4 J/m^2·s, which was monitored with a UV radiometer (UVX Radiometer, UVP) at 254 nm, or with a UV box equipped with a UV-C lamp monitored with a VLX-3W radiometer (Vilber Lourmat) at 254 nm (CX-254 sensor). The filter was removed and cells were either fixed or cultured for the indicated time before fixation, and processed for immunofluorescence. For FRAP analysis, cells were cultured for 20 min to allow recruitment to sites of damage before photobleaching.
Cells (HeLa or MCF7) were plated on 35-mm glass-bottom dishes in phenol-red–free medium (Invitrogen). […] A Leica TCS SP5 microscope equipped with a 63x magnification 1.4 NA oil-immersion lens and FRAP booster were used. During FRAP, cells were maintained at 37°C and 5% CO2. A defined circular region of interest with 2 μm diameter (ROI1) was placed in the nucleus and at the recruitment sites. GFP was excited using a 488-nm argon laser line. 50 pre-bleach images were acquired with 3% of the 488-nm line at 60% argon laser intensity, followed by a single bleach pulse on ROI1 using 476-nm and 488-nm laser lines combined at maximum power. In this manner, at least 60% of the fluorescence in ROI1 was bleached successfully. Next, 400 post-bleach images with a 0.052 s interval were recorded. Mean intensities of ROI1, the whole nucleus (ROI2) and an area outside of the nucleus (ROI3) were quantified and exported as .csv format files.
In assay [3] the test system is HEK293 cells, UV-irradiated sites. The assay can be described thus: Recruitment of FLAG-Cdt2 to UV-irradiated (XPA) sites in HEK293 cells. Conditions: stable HEK293 cells, XPA-positive spots. How it is done: Figure 6. The Cdt2 PIP box is important for its recruitment to DNA damage sites and replication foci and for poly-ubiquitination activity. (A) HEK293 and stable Cdt2^WT or Cdt2^PIP-3A cells were locally UV irradiated, and stained for XPA and FLAG (Cdt2). XPA-positive spots were examined for FLAG signal, and its frequency was counted (%). More than 50 spots were examined. bar:10 μm. […] Bar: 10 μm. […] (D) Whole-cell extracts were prepared from HEK293 and stably transfected cells of Cdt2^WT or Cdt2^PIP-3A cells, separated into soluble (Sup) and chromatin-containing insoluble (Ppt) fractions, and were examined for indicated proteins. The asterisk indicates nonspecific bands. (E) HEK293 and stably transfected cells of Cdt2^WT or Cdt2^PIP-3A were treated with MG132 for 3 h. […]
For Western blotting, whole-cell lysates were prepared by lysing cell pellets directly in SDS–PAGE buffer. […] Protein levels were analysed by ImageJ software.
We used a method to induce DNA photoproducts within localized areas of the cell nucleus as described in Ishii et al (2010). […] UV irradiation was achieved using a UV lamp (SUV-16, As One, Japan) with a dose rate of 0.4 J/m^2·s, which was monitored with a UV radiometer (UVX Radiometer, UVP) at 254 nm, or with a UV box equipped with a UV-C lamp monitored with a VLX-3W radiometer (Vilber Lourmat) at 254 nm (CX-254 sensor). […]

Another assay relates to Cdt2 poly-ubiquitination. As to the kind of experiment: Poly-ubiquitination of Cdt2 itself on chromatin in HEK293 cells. The conditions noted are these: HEK293, MG132 3 h. How it is done:
Figure 6. The Cdt2 PIP box is important for its recruitment to DNA damage sites and replication foci and for poly-ubiquitination activity. (A) HEK293 and stable Cdt2^WT or Cdt2^PIP-3A cells were locally UV irradiated, and stained for XPA and FLAG (Cdt2). XPA-positive spots were examined for FLAG signal, and its frequency was counted (%). More than 50 spots were examined. bar:10 μm. […] Bar: 10 μm. […] (D) Whole-cell extracts were prepared from HEK293 and stably transfected cells of Cdt2^WT or Cdt2^PIP-3A cells, separated into soluble (Sup) and chromatin-containing insoluble (Ppt) fractions, and were examined for indicated proteins. The asterisk indicates nonspecific bands. (E) HEK293 and stably transfected cells of Cdt2^WT or Cdt2^PIP-3A were treated with MG132 for 3 h. Whole-cell extracts (WCE) were prepared, separated into soluble (Sup) and insoluble (Ppt) fractions, and blotted with the indicated antibodies.
as §1

The next assay has as its system DDB1, Cul4A. As to the kind of experiment: Co-immunoprecipitation of DDB1 / Cul4A with FLAG-tagged Cdt2 constructs. Conditions: anti-FLAG IP, cross-linked cells. From the text: Before cell lysate preparation, cells were cross-linked.
Figure 3. […] HEK293 cells were transfected with plasmids expressing the indicated Cdt2 fused to a C-terminal FLAG tag, cross-linked, and precipitated with anti-FLAG antibodies (arrows). […] The bands in the blank lanes for Cul4A blotting correspond to the cross-reacting bands to pre-stained marker. […] HEK293 cells were transfected with the indicated plasmids and treated as in A. * indicates nonspecific bands derived from IgGs. (C) A schematic drawing of the Cdt2 domain structure highlighting the C-terminal PIP box and a sequence alignment of PIP boxes in various organisms. The alanine-changed PIP box mutant of Cdt2 was shown (PIP-3A) together with Cdt1 PIP box. (D) HEK293 cells were transfected with Cdt2^WT or PIP box mutant (Cdt2^PIP-3A) C-terminally fused to a FLAG tag, treated as in B, and Cdt2 was precipitated with anti-FLAG resin.
Control or Cdt2-FLAG expressing 293 cells that were UV irradiated (50 J/m^2), or not UV irradiated, or in the middle S phase (5 h after release from aphidicolon arrest) were fixed with 0.02% formaldehyde for 10 min, lysed using 0.1% Triton X-100-containing modified cytoskeleton (mCSK) buffer (10 mM Pipes, pH 7.9, 100 mM NaCl, 300 mM sucrose, 0.1% [vol/vol] Triton X-100, 1 mM phenylmethylsulfonyl fluoride, 10 mM β-glycerophosphate, 1 mMNa3VO4, 10 mM NaF), and then sonicated. After centrifugation (120,000g, Beckman Type 45Ti rotor, for 20 min at 4°C), the supernatants were mixed with anti-FLAG antibody-conjugated magnetic beads (M8823; Sigma-Aldrich) for 1 h at 4°C to obtain immunoprecipitates. The precipitate was washed with ice-cold 0.1% Triton X-100 containing mCSK buffer and subsequently suspended in SDS sample buffer.

The mark [4] stands for this setting: GFP-tagged, site of UV-C damage (50 J/m^2), 20 min after irradiation.

Consider “Cdt2: Cdt2 tagged with GFP, transiently expressed in MCF7 cells”, for which the “poly-ubiquitination of Cdt1 and p21” value in assay [1] is reported as “Increased levels”. Further, in assay [2] (setting [4]), the half-recovery time was 0.83 s and the immobile fraction came out at 16%. The “FRAP binding kinetics at damage sites after Cdt1 depletion” value in assay [2] (MCF7 synchronized in G1, siCdt1 versus siLuc, Fig 1D) was “remain the same despite the absence of Cdt1”.

B1: Cdt2^PIP-3A: Cdt2 with I709, Y712, and F713 all mutated to alanine (protein, UniProt Q9NZJ0 1-730, looked up, variant I709A Y712A F713A)
Denticleless protein homolog: MLFNSVLRQPQLGVLRNGWSSQYPLQSLLTGYQCSGNDEHTSYGETGVPVPPFGCTFSSAPNMEHVLAVANEEGFVRLYNTESQSFRKKCFKEWMAHWNAVFDLAWVPGELKLVTAAGDQTAKFWDVKAGELIGTCKGHQCSLKSVAFSKFEKAVFCTGGRDGNIMVWDTRCNKKDGFYRQVNQISGAHNTSDKQTPSKPKKKQNSKGLAPSVDFQQSVTVVLFQDENTLVSAGAVDGIIKVWDLRKNYTAYRQEPIASKSFLYPGSSTRKLGYSSLILDSTGSTLFANCTDDNIYMFNMTGLKTSPVAIFNGHQNSTFYVKSSLSPDDQFLVSGSSDEAAYIWKVSTPWQPPTVLLGHSQEVTSVCWCPSDFTKIATCSDDNTLKIWRLNRGLEEKPGGDKLSTVGWASQKKKESRPGLVTVTSSQSTPAKAPRAKCNPSNSSPSSAACAPSCAGDLPLPSNTPTFSIKTSPAKARSPINRRGSVSSVSPKPPSSFKMSIRNWVTRTPSSSPPITPPASETKIMSPRKALIPVSQKSSQAEACSESRNRVKRRLDSSCLESVKQKCVKSCNCVTELDGQVENLHLDLCCLAGNQEDLSKDSLGPTKSSKIEGAGTSISEPPSPISPYASESCGTLPLPLRPCGEGSEMVGKENSSPENKNWLLAMAAKRKAENPSPRSPSSQTPNSRRQSGKKLPSPVTITPSSMRKACTAAHRKSQEDFCGPEHSTEL
modifications: FLAG tag
notes: Cdt2 with I709, Y712, and F713 all mutated to alanine
With B1, the “recruitment to UV-irradiated sites” value in assay [3] is on record as “not recruited to UV-irradiated sites”. In the assay with Cdt2 poly-ubiquitination, the “poly-ubiquitination of Cdt2 on chromatin” value is “severely reduced”. Also, the “binding to DDB1 (and Cul4A)” value in the assay with DDB1, Cul4A is “without significantly affecting interaction with Cul4A and DDB1”.
